{"source": "paper PMC10381533", "about": "“Inhibitory Effects of the Fungal Pigment Rubiginosin C on Hyphal and Biofilm Formation in Candida albicans and Candida auris” (Journal of Fungi, 2023)", "system": "C. auris [DSM 21092] biofilm", "assay": "Effects on C. auris biofilms of various ages (2 h, 12 h, 24 h), crystal violet", "assay_type": "cell-based, Candida auris", "protocol": "The turbidity of C. auris [DSM 21092] dispersion was measured at 280 nm and diluted to the turbidity of a 0.5 McFarland standard. C. auris was cultured in RPMI 1640 medium supplemented with […] MOPS (37 °C, 150 rpm, 2 h, 12 h, 24 h) in 96-well non-tissue microtiter plates (Falcon no. 351172, Thermo Fisher Scientific). After incubation, C. auris biofilms of various ages (2 h, 12 h, 24 h) were washed once by PBS buffer and treated (37 °C, 150 rpm, 24 h) with serial diluted Rub C (250–0.02 μg/mL) in fresh RPMI 1640 medium supplemented with […] MOPS. Samples of each time point were further processed and evaluated by a microtiter plate reader, as described above.", "data": [{"smiles": "C[C@@H]1[C@H](O)[C@@H](C)/C=C/C=C/CC/C=C/C=C/C=C/C=C/C(O[C@H]2O[C@H](C)[C@@H](O)[C@H](N)[C@@H]2O)CC2O[C@](O)(CC(O)C(O)CCC(O)CC(O)CC(O)CC(=O)O[C@H]1C)CC(O)C2C(=O)O", "note": "(stereo partly drawn) [Nystatin, nystatin]", "values": [{"measurement": "biofilm attachment compared to solvent control (=0%)", "setting": "2 h old C. auris biofilm, 2 µg/mL", "value": "84 ±25", "unit": "%"}, {"measurement": "biofilm attachment compared to solvent control (=0%)", "setting": "2 h old C. auris biofilm, 3.9 µg/mL", "value": "39 ±10", "unit": "%"}, {"measurement": "biofilm attachment compared to solvent control (=0%)", "setting": "2 h old C. auris biofilm, 7.8 µg/mL", "value": "58 ±16", "unit": "%"}, {"measurement": "biofilm attachment compared to solvent control (=0%)", "setting": "2 h old C. auris biofilm, 15.6 µg/mL", "value": "53 ±10", "unit": "%"}, {"measurement": "biofilm attachment compared to solvent control (=0%)", "setting": "2 h old C. auris biofilm, 31.3 µg/mL", "value": "50 ±10", "unit": "%"}, {"measurement": "biofilm attachment compared to solvent control (=0%)", "setting": "2 h old C. auris biofilm, 62.5 µg/mL", "value": "47 ±8", "unit": "%"}, {"measurement": "biofilm attachment compared to solvent control (=0%)", "setting": "12 h old C. auris biofilm, 2 µg/mL", "value": "96 ±12", "unit": "%"}, {"measurement": "biofilm attachment compared to solvent control (=0%)", "setting": "12 h old C. auris biofilm, 3.9 µg/mL", "value": "64 ±12", "unit": "%"}, {"measurement": "biofilm attachment compared to solvent control (=0%)", "setting": "12 h old C. auris biofilm, 7.8 µg/mL", "value": "49 ±10", "unit": "%"}, {"measurement": "biofilm attachment compared to solvent control (=0%)", "setting": "12 h old C. auris biofilm, 15.6 µg/mL", "value": "43 ±6", "unit": "%"}, {"measurement": "biofilm attachment compared to solvent control (=0%)", "setting": "12 h old C. auris biofilm, 31.3 µg/mL", "value": "41 ±9", "unit": "%"}, {"measurement": "biofilm attachment compared to solvent control (=0%)", "setting": "12 h old C. auris biofilm, 62.5 µg/mL", "value": "45 ±8", "unit": "%"}, {"measurement": "biofilm attachment compared to solvent control (=0%)", "setting": "24 h old C. auris biofilm, 2 µg/mL", "value": "93 ±28", "unit": "%"}, {"measurement": "biofilm attachment compared to solvent control (=0%)", "setting": "24 h old C. auris biofilm, 3.9 µg/mL", "value": "48 ±2", "unit": "%"}, {"measurement": "biofilm attachment compared to solvent control (=0%)", "setting": "24 h old C. auris biofilm, 7.8 µg/mL", "value": "51 ±9", "unit": "%"}, {"measurement": "biofilm attachment compared to solvent control (=0%)", "setting": "24 h old C. auris biofilm, 15.6 µg/mL", "value": "49 ±5", "unit": "%"}, {"measurement": "biofilm attachment compared to solvent control (=0%)", "setting": "24 h old C. auris biofilm, 31.3 µg/mL", "value": "50 ±10", "unit": "%"}, {"measurement": "biofilm attachment compared to solvent control (=0%)", "setting": "24 h old C. auris biofilm, 62.5 µg/mL", "value": "46 ±5", "unit": "%"}]}]}
